Laboratory results taken from patent US8802597B2, “Herbicidal pyrimidines” (E I du Pont de Nemours and Company, priority 2003, dated 2014).
Like-named read-outs stand apart in the source and are kept apart here.

What was measured:
Assay in all cases: Test C pre/postemergence
Assay type in all cases: in vivo
[1] = tested on: woolly cupgrass (Eriochloa villosa); conditions: Eriochloa villosa; for pest or weed control at 31 g/ha: 31 g ai/ha; for pest or weed control at 62 g/ha: 62 g ai/ha; for pest or weed control at 125 g/ha: 125 g ai/ha; for pest or weed control at 250 g/ha: 250 g ai/ha
Summary of the method: (§1)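 Injury scored visually 12–14 days after application on 0–100 scale (100 = complete control), relative to controls. Compounds, formulated with surfactant in non-phytotoxic solvent, applied to soil at planting (pre) or to 1- to 4-leaf plants 2–18 cm tall (post) in greenhouse.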

[2] = tested on: goosegrass (Eleusine indica); conditions: Eleusine indica; for pest or weed control at 31 g/ha: 31 g ai/ha; for pest or weed control at 62 g/ha: 62 g ai/ha; for pest or weed control at 125 g/ha: 125 g ai/ha; for pest or weed control at 250 g/ha: 250 g ai/ha
Summary of the method: as §1

[3] = tested on: yellow nutsedge (Cyperus esculentus); conditions: Cyperus; for pest or weed control at 31 g/ha: 31 g ai/ha; for pest or weed control at 62 g/ha: 62 g ai/ha; for pest or weed control at 125 g/ha: 125 g ai/ha; for pest or weed control at 250 g/ha: 250 g ai/ha
Summary of the method: as §1

[4] = tested on: lambsquarters (Chenopodium album); conditions: Chenopodium album; for pest or weed control at 31 g/ha: 31 g ai/ha; for pest or weed control at 62 g/ha: 62 g ai/ha; for pest or weed control at 125 g/ha: 125 g ai/ha; for pest or weed control at 250 g/ha: 250 g ai/ha
Summary of the method: as §1

[5] = tested on: velvetleaf (Abutilon theophrasti); conditions: Abutilon theophrasti; for pest or weed control at 31 g/ha: 31 g ai/ha; for pest or weed control at 62 g/ha: 62 g ai/ha; for pest or weed control at 125 g/ha: 125 g ai/ha; for pest or weed control at 250 g/ha: 250 g ai/ha
Summary of the method: as §1

[6] = tested on: Surinam grass (Brachiaria decumbens); conditions: Urochloa decumbens, post-emergence, Postemergence
Summary of the method: as §1

[7] = post-emergence, Postemergence, scale 0 to 100 (0 no effect, 100 complete control), read-out: Cupgrass, Woolly plant response rating
[8] = pre-emergence, Preemergence, scale 0 to 100, 0 no effect, 100 complete control, read-out: Plant response rating, Cupgrass, Woolly
[9] = pre-emergence, Preemergence, scale 0 to 100, read-out: Plant response rating, Cupgrass, Woolly
[10] = post-emergence, Postemergence, scale 0 to 100 (0 no effect, 100 complete control), read-out: Goosegrass plant response rating
[11] = pre-emergence, Preemergence, scale 0 to 100, 0 no effect, 100 complete control, read-out: Plant response rating, Goosegrass
[12] = pre-emergence, Preemergence, scale 0 to 100, read-out: Plant response rating, Goosegrass
[13] = post-emergence, Postemergence, scale 0 to 100 (0 no effect, 100 complete control), read-out: Nutsedge, Yellow plant response rating
[14] = pre-emergence, Preemergence, scale 0 to 100, 0 no effect, 100 complete control, read-out: Plant response rating, Nutsedge, Yellow
[15] = pre-emergence, Preemergence, scale 0 to 100, read-out: Plant response rating, Nutsedge, Yellow
[16] = post-emergence, Postemergence, scale 0 to 100 (0 no effect, 100 complete control), read-out: Lambsquarters plant response rating
[17] = pre-emergence, Preemergence, scale 0 to 100, 0 no effect, 100 complete control, read-out: Plant response rating, Lambsquarters
[18] = pre-emergence, Preemergence, scale 0 to 100, read-out: Plant response rating, Lambsquarters
[19] = post-emergence, Postemergence, scale 0 to 100 (0 no effect, 100 complete control), read-out: Velvetleaf plant response rating
[20] = pre-emergence, Preemergence, scale 0 to 100, 0 no effect, 100 complete control, read-out: Plant response rating, Velvetleaf
[21] = pre-emergence, Preemergence, scale 0 to 100, read-out: Plant response rating, Velvetleaf

COC(=O)c1nc(C2CC2)nc(N)c1Cl [Compound 9, methyl 6-amino-5-chloro-2-cyclopropyl-4-pyrimidinecarboxylate]
65%: pest or weed control at 62 g/ha ([6]; 62 g ai/ha, scale 0 to 100 (0 no effect, 100 complete control), read-out: Surinam Grass plant response rating)
20%: pest or weed control at 125 g/ha [2, 12] | pest or weed control at 31 g/ha [3, 14]
95%: pest or weed control at 125 g/ha [1, 9] | pest or weed control at 62 g/ha [4, 16] | pest or weed control at 31 g/ha [4, 17] | pest or weed control at 250 g/ha ([5]; post-emergence, Postemergence, scale 0 to 100, read-out: Plant response rating, Velvetleaf) | pest or weed control at 62 g/ha [5, 20]
90%: pest or weed control at 62 g/ha [1, 8] | pest or weed control at 31 g/ha ([4]; post-emergence, Postemergence, read-out: Plant response rating (scale of 0 to 100), Lambsquarters)
75%: pest or weed control at 62 g/ha [5, 19] | pest or weed control at 125 g/ha ([6]; 125 g ai/ha, scale 0 to 100 (0 no effect, 100 complete control), read-out: Surinam Grass plant response rating)
70%: pest or weed control at 125 g/ha [1, 7] | pest or weed control at 31 g/ha [5, 20]
45%: pest or weed control at 250 g/ha ([2]; post-emergence, Postemergence, scale 0 to 100, read-out: Plant response rating, Goosegrass) | pest or weed control at 31 g/ha ([6]; 31 g ai/ha, read-out: Plant response rating (scale of 0 to 100), Surinam Grass)
40%: pest or weed control at 31 g/ha ([1]; post-emergence, Postemergence, read-out: Plant response rating (scale of 0 to 100), Cupgrass, Woolly) | pest or weed control at 125 g/ha [2, 10]
100%: pest or weed control at 250 g/ha [1, 9] | pest or weed control at 62 g/ha [3, 14] | pest or weed control at 125 g/ha [3, 15] | pest or weed control at 250 g/ha [3, 15] | pest or weed control at 125 g/ha [4, 16] | pest or weed control at 250 g/ha ([4]; post-emergence, Postemergence, scale 0 to 100, read-out: Plant response rating, Lambsquarters) | pest or weed control at 62 g/ha [4, 17] | pest or weed control at 125 g/ha [4, 18] | pest or weed control at 250 g/ha [4, 18] | pest or weed control at 125 g/ha [5, 21] | pest or weed control at 250 g/ha [5, 21]
60%: pest or weed control at 62 g/ha [1, 7]
85%: pest or weed control at 250 g/ha ([1]; post-emergence, Postemergence, scale 0 to 100, read-out: Plant response rating, Cupgrass, Woolly)
80%: pest or weed control at 125 g/ha [5, 19] | pest or weed control at 250 g/ha ([6]; 250 g ai/ha, scale 0 to 100, read-out: Plant response rating, Surinam Grass)
0%: pest or weed control at 31 g/ha [1, 8] | pest or weed control at 31 g/ha ([2]; post-emergence, Postemergence, read-out: Plant response rating (scale of 0 to 100), Goosegrass) | pest or weed control at 62 g/ha [2, 10] | pest or weed control at 31 g/ha [2, 11] | pest or weed control at 62 g/ha [2, 11] | pest or weed control at 31 g/ha ([3]; post-emergence, Postemergence, read-out: Plant response rating (scale of 0 to 100), Nutsedge, Yellow) | pest or weed control at 62 g/ha [3, 13] | pest or weed control at 125 g/ha [3, 13] | pest or weed control at 250 g/ha ([3]; post-emergence, Postemergence, scale 0 to 100, read-out: Plant response rating, Nutsedge, Yellow) | pest or weed control at 31 g/ha ([5]; post-emergence, Postemergence, read-out: Plant response rating (scale of 0 to 100), Velvetleaf)
50%: pest or weed control at 250 g/ha [2, 12]
